Laboratory results as given in ChEMBL document CHEMBL2331098, “Unprecedented polyketides from a marine sponge-associated Stachylidium sp” (J Nat Prod, 2013).
Active and inactive are the calls of the source.

Columns and labels:
[1] = system: Escherichia coli; experiment: Antimicrobial activity against Escherichia coli; type: functional, organism-based
[2] = system: [Chlorella] fusca; experiment: Antimicrobial activity against Chlorella fusca; type: functional, organism-based; details: Scenedesmus fuscus
[3] = system: Microbotryum violaceum; experiment: Antimicrobial activity against Microbotryum violaceum; type: functional, organism-based
[4] = system: Aspergillus ruber; experiment: Antimicrobial activity against Eurotium rubrum; type: functional, organism-based
[5] = system: Mycotypha microspora; experiment: Antimicrobial activity against Mycotypha microspora; type: functional, organism-based
[6] = system: Priestia megaterium; experiment: Antimicrobial activity against Bacillus megaterium; type: functional, organism-based
[7] = organism: Homo sapiens; experiment: Inhibition of NF-kappaB protein complex (unknown origin) at 100 uM
[8] = system: Adipocyte; experiment: Induction of glucose uptake in rat primary adipocyte cells at 100 uM; type: functional, cell-based
[9] = biological target: T1, Peroxisome proliferator-activated receptor (Homo sapiens) (UniProt P37231+Q07869+Q03181); experiment: Activity at PPAR (unknown origin) by PPAR ligand assay; type: protein assay
[10] = biological target: T1, Peroxisome proliferator-activated receptor (Homo sapiens); experiment: Activity at PPAR (unknown origin) by PPAR co-activator assay; type: protein assay
[11] = system: NCI-H460; experiment: Cytotoxicity against human NCI-H460 cells at 100 uM; type: functional, cell-based
[12] = biological target: Tyrosine-protein phosphatase non-receptor type 1 (Homo sapiens) (UniProt P18031); experiment: Inhibition of PTP1B (unknown origin)
Sequence of Tyrosine-protein phosphatase non-receptor type 1 (Homo sapiens) (P18031 whole entry): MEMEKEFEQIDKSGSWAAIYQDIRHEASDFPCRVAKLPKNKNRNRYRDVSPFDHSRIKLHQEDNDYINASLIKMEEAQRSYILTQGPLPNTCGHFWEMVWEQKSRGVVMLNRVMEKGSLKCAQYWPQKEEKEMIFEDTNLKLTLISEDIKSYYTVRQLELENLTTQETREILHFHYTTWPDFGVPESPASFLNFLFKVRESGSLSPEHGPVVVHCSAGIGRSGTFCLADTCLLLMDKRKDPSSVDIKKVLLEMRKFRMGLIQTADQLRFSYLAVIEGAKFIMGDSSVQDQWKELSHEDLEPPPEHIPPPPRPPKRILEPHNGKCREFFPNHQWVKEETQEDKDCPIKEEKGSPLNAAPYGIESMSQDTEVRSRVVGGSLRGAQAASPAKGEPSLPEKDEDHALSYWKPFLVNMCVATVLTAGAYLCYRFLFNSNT

[13] = system: Adipocyte; experiment: Induction of glucose uptake in mouse primary adipocyte cells at 100 uM; type: functional, cell-based
[14] = system: SF-268; experiment: Cytotoxicity against human SF268 cells at 100 uM; type: functional, cell-based
[15] = system: MCF7; experiment: Cytotoxicity against human MCF7 cells at 100 uM; type: functional, cell-based
[16] = system: 3T3-L1; experiment: Induction of glucose uptake in mouse 3T3L1 cells at 100 uM; type: functional, cell-based
[17] = organism: Homo sapiens; experiment: Displacement of [3H]DTG from sigma2 receptor (unknown origin) at 10 uM
[18] = biological target: Muscarinic acetylcholine receptor M2 (Homo sapiens) (UniProt P08172); experiment: Displacement of [3H]QNB from M2 receptor (unknown origin) at 10 uM
[19] = biological target: 5-hydroxytryptamine receptor 2C (Homo sapiens) (UniProt P28335); experiment: Displacement of [3H]mesulergine from 5-HT2C receptor (unknown origin) at 10 uM
[20] = biological target: 5-hydroxytryptamine receptor 2B (Homo sapiens) (UniProt P41595); experiment: Displacement of [3H]LSD from 5-HT2B receptor (unknown origin) at 10 uM
[21] = biological target: 5-hydroxytryptamine receptor 2A (Homo sapiens) (UniProt P28223); experiment: Displacement of [3H]ketanserin from 5-HT2A receptor (unknown origin) at 10 uM
[22] = biological target: Muscarinic acetylcholine receptor M3 (Homo sapiens) (UniProt P20309); experiment: Displacement of [3H]QNB from M3 receptor (unknown origin) at 10 uM
[23] = biological target: Beta-2 adrenergic receptor (Homo sapiens) (UniProt P07550); experiment: Displacement of [125I]iodopindolol from beta2 receptor (unknown origin) at 10 uM
[24] = biological target: 5-hydroxytryptamine receptor 5A (Homo sapiens) (UniProt P47898); experiment: Displacement of [3H]LSD from 5-HT5A receptor (unknown origin) at 10 uM
Sequence of 5-hydroxytryptamine receptor 5A (Homo sapiens) (P47898 whole entry): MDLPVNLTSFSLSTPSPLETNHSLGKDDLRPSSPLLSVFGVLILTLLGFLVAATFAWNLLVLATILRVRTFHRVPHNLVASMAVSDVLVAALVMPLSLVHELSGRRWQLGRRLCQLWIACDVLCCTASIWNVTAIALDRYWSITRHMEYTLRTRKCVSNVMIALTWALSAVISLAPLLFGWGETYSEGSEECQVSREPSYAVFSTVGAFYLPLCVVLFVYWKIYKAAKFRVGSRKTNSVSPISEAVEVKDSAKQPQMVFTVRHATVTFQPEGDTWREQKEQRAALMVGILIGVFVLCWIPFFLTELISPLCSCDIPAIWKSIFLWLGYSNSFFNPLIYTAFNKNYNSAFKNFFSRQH

[25] = biological target: Kappa-type opioid receptor (Homo sapiens) (UniProt P41145); experiment: Displacement of [3H]U69593 from kappa opioid receptor (unknown origin) at 10 uM
[26] = biological target: Mu-type opioid receptor (Homo sapiens) (UniProt P35372); experiment: Displacement of [3H]DAMGO from mu opioid receptor (unknown origin) at 10 uM
[27] = biological target: D(2) dopamine receptor (Homo sapiens) (UniProt P14416); experiment: Displacement of [3H]N-methylspiperone from D2 receptor (unknown origin) at 10 uM
[28] = biological target: 5-hydroxytryptamine receptor 6 (Homo sapiens) (UniProt P50406); experiment: Displacement of [3H]LSD from 5-HT6 receptor (unknown origin) at 10 uM
[29] = biological target: Beta-1 adrenergic receptor (Homo sapiens) (UniProt P08588); experiment: Displacement of [125I]iodopindolol from beta1 receptor (unknown origin) at 10 uM
[30] = organism: Rattus norvegicus; experiment: Displacement of [3H]flunitrazepam from rat brain BZP receptor (unknown origin) at 10 uM
[31] = biological target: Sodium-dependent serotonin transporter (Homo sapiens) (UniProt P31645); experiment: Displacement of [3H]citalopram from SERT (unknown origin) at 10 uM
[32] = biological target: Muscarinic acetylcholine receptor M1 (Homo sapiens) (UniProt P11229); experiment: Displacement of [3H]QNB from M1 receptor (unknown origin) at 10 uM
[33] = biological target: Histamine H3 receptor (Homo sapiens) (UniProt Q9Y5N1); experiment: Displacement of [3H]alpha-methylhistamine from H3 receptor (unknown origin) at 10 uM
[34] = biological target: Delta-type opioid receptor (Homo sapiens) (UniProt P41143); experiment: Displacement of [3H]DADLE from delta opioid receptor (unknown origin) at 10 uM
[35] = biological target: D(4) dopamine receptor (Homo sapiens) (UniProt P21917); experiment: Displacement of [3H]N-methylspiperone from D4 receptor (unknown origin) at 10 uM
Sequence of D(4) dopamine receptor (Homo sapiens) (P21917 whole entry): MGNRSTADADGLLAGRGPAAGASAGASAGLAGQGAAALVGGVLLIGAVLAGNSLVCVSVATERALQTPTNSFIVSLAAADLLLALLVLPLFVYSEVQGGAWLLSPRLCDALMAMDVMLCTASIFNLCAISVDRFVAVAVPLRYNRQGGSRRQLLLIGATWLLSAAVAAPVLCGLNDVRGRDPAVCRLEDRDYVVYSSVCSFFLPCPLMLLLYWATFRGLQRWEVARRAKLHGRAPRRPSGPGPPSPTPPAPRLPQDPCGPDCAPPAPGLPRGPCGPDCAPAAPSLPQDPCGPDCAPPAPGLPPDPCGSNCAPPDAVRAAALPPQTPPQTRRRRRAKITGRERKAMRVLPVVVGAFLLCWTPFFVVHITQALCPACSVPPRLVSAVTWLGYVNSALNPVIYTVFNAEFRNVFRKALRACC

[36] = biological target: D(1B) dopamine receptor (Homo sapiens) (UniProt P21918); experiment: Displacement of [3H][…] from D5 receptor (unknown origin) at 10 uM
[37] = biological target: 5-hydroxytryptamine receptor 1D (Homo sapiens) (UniProt P28221); experiment: Displacement of [3H][…] from 5-HT1D receptor (unknown origin) at 10 uM
[38] = biological target: Alpha-2B adrenergic receptor (Homo sapiens) (UniProt P18089); experiment: Displacement of [3H]clonidine from alpha2B receptor (unknown origin) at 10 uM
[39] = biological target: Alpha-2A adrenergic receptor (Homo sapiens) (UniProt P08913); experiment: Displacement of [3H]clonidine from alpha2A receptor (unknown origin) at 10 uM
Sequence of Alpha-2A adrenergic receptor (Homo sapiens) (P08913 whole entry): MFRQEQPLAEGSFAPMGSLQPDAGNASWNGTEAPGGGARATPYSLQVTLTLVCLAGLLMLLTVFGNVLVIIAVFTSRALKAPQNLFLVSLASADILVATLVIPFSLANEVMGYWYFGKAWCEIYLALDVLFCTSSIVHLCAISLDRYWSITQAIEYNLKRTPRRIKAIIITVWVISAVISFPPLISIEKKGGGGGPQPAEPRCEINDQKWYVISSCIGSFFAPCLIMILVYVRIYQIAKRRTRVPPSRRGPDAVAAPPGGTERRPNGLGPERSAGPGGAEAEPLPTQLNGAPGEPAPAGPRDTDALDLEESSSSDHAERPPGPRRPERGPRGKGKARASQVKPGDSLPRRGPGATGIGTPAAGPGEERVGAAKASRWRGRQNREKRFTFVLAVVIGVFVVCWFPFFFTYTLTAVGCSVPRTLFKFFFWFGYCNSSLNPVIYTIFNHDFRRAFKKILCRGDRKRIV

[40] = biological target: Alpha-1A adrenergic receptor (Homo sapiens) (UniProt P35348); experiment: Displacement of [3H]prazosin from alpha1A receptor (unknown origin) at 10 uM
Sequence of Alpha-1A adrenergic receptor (Homo sapiens) (P35348 whole entry): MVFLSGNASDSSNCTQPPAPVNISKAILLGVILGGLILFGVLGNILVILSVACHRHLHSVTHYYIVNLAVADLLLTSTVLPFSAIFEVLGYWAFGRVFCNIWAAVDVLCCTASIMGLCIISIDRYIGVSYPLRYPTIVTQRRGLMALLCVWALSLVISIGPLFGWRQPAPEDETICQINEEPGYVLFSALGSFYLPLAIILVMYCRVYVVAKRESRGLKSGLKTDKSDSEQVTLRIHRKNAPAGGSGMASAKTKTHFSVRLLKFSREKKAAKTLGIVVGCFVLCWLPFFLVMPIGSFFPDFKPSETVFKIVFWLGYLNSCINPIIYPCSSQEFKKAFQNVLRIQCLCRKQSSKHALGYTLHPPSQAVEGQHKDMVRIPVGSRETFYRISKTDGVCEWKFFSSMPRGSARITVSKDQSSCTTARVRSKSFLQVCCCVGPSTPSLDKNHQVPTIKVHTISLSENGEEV

[41] = biological target: Sigma non-opioid intracellular receptor 1 (Homo sapiens) (UniProt Q99720); experiment: Displacement of [3H]pentazocine from sigma1 receptor (unknown origin) at 10 uM
Sequence of Sigma non-opioid intracellular receptor 1 (Homo sapiens) (Q99720 whole entry): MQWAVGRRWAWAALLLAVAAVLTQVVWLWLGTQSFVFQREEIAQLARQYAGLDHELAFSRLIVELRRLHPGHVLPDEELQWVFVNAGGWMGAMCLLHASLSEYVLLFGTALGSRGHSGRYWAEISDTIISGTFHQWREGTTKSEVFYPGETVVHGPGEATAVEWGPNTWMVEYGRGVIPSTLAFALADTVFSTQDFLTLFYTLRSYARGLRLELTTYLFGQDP

[42] = biological target: Alpha-1B adrenergic receptor (Homo sapiens) (UniProt P35368); experiment: Displacement of [3H]prazosin from alpha1B receptor (unknown origin) at 10 uM
Sequence of Alpha-1B adrenergic receptor (Homo sapiens) (P35368 whole entry): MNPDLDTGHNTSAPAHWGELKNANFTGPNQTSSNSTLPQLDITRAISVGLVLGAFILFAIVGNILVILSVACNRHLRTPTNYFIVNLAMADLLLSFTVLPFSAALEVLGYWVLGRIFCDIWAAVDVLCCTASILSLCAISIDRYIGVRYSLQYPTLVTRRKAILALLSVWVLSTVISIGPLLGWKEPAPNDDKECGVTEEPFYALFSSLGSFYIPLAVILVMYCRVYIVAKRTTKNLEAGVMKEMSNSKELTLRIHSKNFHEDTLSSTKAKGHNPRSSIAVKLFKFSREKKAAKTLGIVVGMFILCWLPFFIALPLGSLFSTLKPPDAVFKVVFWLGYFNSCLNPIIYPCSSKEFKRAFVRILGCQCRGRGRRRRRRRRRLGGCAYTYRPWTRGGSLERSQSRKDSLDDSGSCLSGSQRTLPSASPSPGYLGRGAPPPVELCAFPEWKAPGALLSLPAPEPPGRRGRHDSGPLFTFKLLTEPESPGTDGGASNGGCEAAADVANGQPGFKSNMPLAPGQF

[43] = biological target: 5-hydroxytryptamine receptor 1B (Homo sapiens) (UniProt P28222); experiment: Displacement of [3H][…] from 5-HT1B receptor (unknown origin) at 10 uM
Sequence of 5-hydroxytryptamine receptor 1B (Homo sapiens) (P28222 whole entry): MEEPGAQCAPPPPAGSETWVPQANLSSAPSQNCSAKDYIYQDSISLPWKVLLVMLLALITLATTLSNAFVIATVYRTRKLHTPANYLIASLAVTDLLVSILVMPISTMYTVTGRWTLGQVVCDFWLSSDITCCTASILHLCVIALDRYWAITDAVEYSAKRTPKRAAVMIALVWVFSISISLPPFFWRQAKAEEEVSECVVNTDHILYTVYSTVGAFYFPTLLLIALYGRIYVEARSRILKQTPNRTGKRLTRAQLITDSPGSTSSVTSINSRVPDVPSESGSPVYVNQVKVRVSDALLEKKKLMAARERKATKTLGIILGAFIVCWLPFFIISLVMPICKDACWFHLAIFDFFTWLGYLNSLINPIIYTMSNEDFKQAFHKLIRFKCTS

[44] = biological target: Muscarinic acetylcholine receptor M4 (Homo sapiens) (UniProt P08173); experiment: Displacement of [3H]QNB from M4 receptor (unknown origin) at 10 uM
[45] = biological target: D(3) dopamine receptor (Homo sapiens) (UniProt P35462); experiment: Displacement of [3H]N-methylspiperone from D3 receptor (unknown origin) at 10 uM
[46] = biological target: Muscarinic acetylcholine receptor M5 (Homo sapiens) (UniProt P08912); experiment: Displacement of [3H]QNB from M5 receptor (unknown origin) at 10 uM
[47] = biological target: 5-hydroxytryptamine receptor 7 (Homo sapiens) (UniProt P34969); experiment: Displacement of [3H]LSD from 5-HT7 receptor (unknown origin) at 10 uM
[48] = biological target: Histamine H2 receptor (Homo sapiens) (UniProt P25021); experiment: Displacement of [3H]tiotidine from H2 receptor (unknown origin) at 10 uM
Sequence of Histamine H2 receptor (Homo sapiens) (P25021 whole entry): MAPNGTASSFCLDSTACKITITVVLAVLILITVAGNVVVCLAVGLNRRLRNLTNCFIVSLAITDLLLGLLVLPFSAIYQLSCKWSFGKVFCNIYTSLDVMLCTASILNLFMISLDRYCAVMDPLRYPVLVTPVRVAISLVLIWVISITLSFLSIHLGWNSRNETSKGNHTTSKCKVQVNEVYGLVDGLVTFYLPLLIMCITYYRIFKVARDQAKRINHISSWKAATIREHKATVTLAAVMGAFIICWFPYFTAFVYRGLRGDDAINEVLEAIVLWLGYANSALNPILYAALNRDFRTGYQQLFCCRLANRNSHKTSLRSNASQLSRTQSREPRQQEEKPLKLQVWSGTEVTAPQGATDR

[49] = biological target: Histamine H4 receptor (Homo sapiens) (UniProt Q9H3N8); experiment: Displacement of [3H]histamine from H4 receptor (unknown origin) at 10 uM
[50] = biological target: Alpha-1D adrenergic receptor (Homo sapiens) (UniProt P25100); experiment: Displacement of radiolabeled ligand from alpha1D receptor (unknown origin) at 10 uM
[51] = biological target: Beta-3 adrenergic receptor (Homo sapiens) (UniProt P13945); experiment: Displacement of [125I]iodopindolol from beta3 receptor (unknown origin) at 10 uM
[52] = biological target: Alpha-2C adrenergic receptor (Homo sapiens) (UniProt P18825); experiment: Displacement of [3H]clonidine from alpha2C receptor (unknown origin) at 10 uM
Sequence of Alpha-2C adrenergic receptor (Homo sapiens) (P18825 whole entry): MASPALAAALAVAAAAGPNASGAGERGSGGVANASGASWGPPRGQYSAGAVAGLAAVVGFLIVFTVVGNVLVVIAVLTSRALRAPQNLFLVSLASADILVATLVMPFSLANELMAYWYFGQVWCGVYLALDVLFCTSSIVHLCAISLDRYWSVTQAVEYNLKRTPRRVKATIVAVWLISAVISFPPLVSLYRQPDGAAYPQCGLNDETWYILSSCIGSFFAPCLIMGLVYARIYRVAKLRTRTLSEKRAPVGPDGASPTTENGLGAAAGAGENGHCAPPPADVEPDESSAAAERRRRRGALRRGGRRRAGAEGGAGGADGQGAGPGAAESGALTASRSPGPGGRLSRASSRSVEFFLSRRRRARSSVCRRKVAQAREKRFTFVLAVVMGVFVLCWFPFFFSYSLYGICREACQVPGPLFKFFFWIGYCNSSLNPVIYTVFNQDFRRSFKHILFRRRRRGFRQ

[53] = biological target: Sodium-dependent noradrenaline transporter (Homo sapiens) (UniProt P23975); experiment: Displacement of [3H]nisoxetine from NET (unknown origin) at 10 uM
[54] = biological target: 5-hydroxytryptamine receptor 1A (Homo sapiens) (UniProt P08908); experiment: Displacement of [3H]8-OH-DPAT from 5-HT1A receptor (unknown origin) at 10 uM
[55] = biological target: 5-hydroxytryptamine receptor 1E (Homo sapiens) (UniProt P28566); experiment: Displacement of [3H]5-HT from 5-HT1E receptor (unknown origin) at 10 uM
Sequence of 5-hydroxytryptamine receptor 1E (Homo sapiens) (P28566 whole entry): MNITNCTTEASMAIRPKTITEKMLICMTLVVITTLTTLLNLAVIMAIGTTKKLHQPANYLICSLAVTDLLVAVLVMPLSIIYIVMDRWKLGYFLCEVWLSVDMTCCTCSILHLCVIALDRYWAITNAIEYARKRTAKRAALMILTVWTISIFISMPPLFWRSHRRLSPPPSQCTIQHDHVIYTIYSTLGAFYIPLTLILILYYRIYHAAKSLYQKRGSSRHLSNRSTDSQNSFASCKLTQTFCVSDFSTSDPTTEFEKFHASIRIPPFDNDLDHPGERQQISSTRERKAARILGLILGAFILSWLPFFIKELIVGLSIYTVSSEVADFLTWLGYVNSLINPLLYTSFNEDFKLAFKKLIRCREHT

[56] = biological target: Histamine H1 receptor (Homo sapiens) (UniProt P35367); experiment: Displacement of [3H]pyrilamine from H1 receptor (unknown origin) at 10 uM
[57] = biological target: 5-hydroxytryptamine receptor 3A (Homo sapiens) (UniProt P46098); experiment: Displacement of [3H]LY278584 from 5-HT3 receptor (unknown origin) at 10 uM
Sequence of 5-hydroxytryptamine receptor 3A (Homo sapiens) (P46098 whole entry): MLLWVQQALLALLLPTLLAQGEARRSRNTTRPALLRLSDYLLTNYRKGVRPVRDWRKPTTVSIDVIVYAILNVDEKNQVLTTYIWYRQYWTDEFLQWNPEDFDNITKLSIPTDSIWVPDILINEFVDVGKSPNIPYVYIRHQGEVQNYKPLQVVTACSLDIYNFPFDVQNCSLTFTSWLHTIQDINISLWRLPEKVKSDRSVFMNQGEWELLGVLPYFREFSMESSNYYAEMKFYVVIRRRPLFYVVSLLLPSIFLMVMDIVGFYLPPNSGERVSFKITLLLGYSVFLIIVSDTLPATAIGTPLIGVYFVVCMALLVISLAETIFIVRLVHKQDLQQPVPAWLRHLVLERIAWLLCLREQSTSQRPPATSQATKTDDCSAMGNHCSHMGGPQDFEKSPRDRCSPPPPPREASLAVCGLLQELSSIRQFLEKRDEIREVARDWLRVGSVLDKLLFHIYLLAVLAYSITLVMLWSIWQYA

[58] = biological target: D(1A) dopamine receptor (Homo sapiens) (UniProt P21728); experiment: Displacement of [3H][…] from D1 receptor (unknown origin) at 10 uM
[59] = biological target: GABA-A receptor; agonist GABA site (Homo sapiens) (UniProt P14867+P47870+P28472+P48169+P34903+P18505+P47869+P31644+Q16445); experiment: Displacement of [3H]muscimol from GABAA receptor (unknown origin) at 10 uM; type: protein-complex assay
[60] = biological target: Sodium-dependent dopamine transporter (Homo sapiens) (UniProt Q01959); experiment: Displacement of [3H]WIN35428 from DAT (unknown origin) at 10 uM

CCc1cc(O)c(C)c(OC)c1CC(C)C(=O)CC(O)CC (configuration not stated)
inactive: Activity [1] | Activity [2] | Activity [3] | Activity [4] | Activity [5] | Activity [6]

COc1c(C)c(O)cc2c1C(O)CC2=O (configuration not stated)
inactive: Activity [7] | inhibition [8] | Activity [1] | Activity [2] | Activity [3] | Activity [9] | Activity [10] | Activity [11] | Activity [4] | inhibition [12] | inhibition [13] | Activity [5] | Activity [14] | Activity [6] | Activity [15] | inhibition [16]

COc1c(C)c(OC/C=C(\C)CCC=C(C)C)cc2c1[C@H](OC)O[C@]2(C)OC
inactive: Activity [7] | Activity [1] | Activity [2] | Activity [3] | Activity [4] | Activity [5] | Activity [6]

COCc1c(CO)cc(O)c(C)c1OC
inactive: Activity [1] | Activity [2] | Activity [3] | Activity [4] | Activity [5] | Activity [6]

CCc1cc(O)c(C)c(=O)o1
inactive: inhibition [8] | Activity [1] | Activity [2] | Activity [3] | Activity [9] | Activity [10] | Activity [4] | inhibition [12] | inhibition [13] | Activity [5] | Activity [6] | inhibition [16]

COCc1c(C(C)O)cc(O)c(C)c1OC (configuration not stated)
inactive: inhibition [17] | inhibition [18] | inhibition [19] | inhibition [20] | inhibition [21] | inhibition [22] | inhibition [23] | Activity [1] | inhibition [24] | inhibition [25] | inhibition [26] | inhibition [27] | inhibition [28] | inhibition [29] | inhibition [30] | inhibition [31] | inhibition [32] | Activity [2] | inhibition [33] | inhibition [34] | inhibition [35] | Activity [3] | inhibition [36] | inhibition [37] | inhibition [38] | inhibition [39] | inhibition [40] | inhibition [41] | Activity [4] | inhibition [42] | inhibition [43] | inhibition [44] | inhibition [45] | inhibition [46] | inhibition [47] | inhibition [48] | inhibition [49] | inhibition [50] | inhibition [51] | inhibition [52] | inhibition [53] | Activity [5] | inhibition [54] | inhibition [55] | Activity [6] | inhibition [56] | inhibition [57] | inhibition [58] | inhibition [59] | inhibition [60]

COc1c(C)c(OC/C=C(\C)CCC=C(C)C)cc2c1[C@H](OC)O[C@@]2(C)OC
inactive: Activity [7] | Activity [1] | Activity [2] | Activity [3] | Activity [11] | Activity [4] | Activity [5] | Activity [14] | Activity [6] | Activity [15]
